Source: patent US12297218B2, “Complex comprising a PSMA-targeting compound linked to a lead or thorium radionuclide” (Sciencons AS, priority 2017, dated 2025)

Key:
[1] = system: C4-2 PSMA-positive xenografts; assay: Biodistribution of radiolabelled ligands after intravenous injection in nude mice with C4-2 xenografts; conditions: for Tumor-to-kidney ratio / Kidney uptake / Tumor uptake: average; for Tumor-to-kidney ratio: 1-hour point after administration; for Kidney uptake / Tumor uptake: 4 hours after injection
Procedure: Each group usually consisted of three mice. […] Approximately 16 kBq of ^224Ra/^212Pb was injected in each animal, i.e., approximately 0.2 nmol of ligand per mouse. Animals were given anaesthesia and sacrificed by cervical dislocation followed by dissection and harvesting of tissue-, blood- and urine samples. The samples were weighed and counted on a gamma counter.
Three mice in each group. […] The molar concentration was the same for both products, i.e., 12.5 nmol per MBq. Approximately 16 kBq of ^224Ra/^212Pb was injected in each animal, i.e., approximately 0.2 nmol of ligand per mouse. Animals were given anaesthesia and sacrificed by cervical dislocation followed by dissection and harvesting of tissue-, blood- and urine samples. The samples were weighed and counted on a gamma counter.
Methods: Tumor and kidney uptake of ^212Pb-labeled p-SCN-Bn-TCMC-PSMA ligand 1 and ^177Lu-labeled PSMA-617 was compared at 1 hours and 4 hours after administration of the products by intravenous injection into nude mice with C4-2 xenografts as described in Example 9.

[2] = system: C4-2 PSMA positive human prostate cells; assay: Comparative therapy experiment in nude mice with C4-2 xenografts; format: in vivo; conditions: for Median survival: 52 MBq ^177Lu-PSMA-617 or 320 kBq ^212Pb-p-SCN-Bn-TCMC-PSMA ligand 1
Procedure: Male nude mice were inoculated in the flanks with C4-2 PSMA positive human prostate cells and 2 weeks later when tumors were 5-7 mm in diameters. Groups of 8 animals each received saline, 52 MBq of ^177Lu-PSMA-617 or 320 kBq of ^212Pb-p-SCN-Bn-TCMC-PSMA ligand 1. Animals were sacrificed when tumor size reached 20 mm due to animal welfare requirements. […] For ^212Pb the effective half-life was assumed to be 10.6 h, 10% of injected dose per gram decays in tumor and 100% of radiation in a tumor is absorbed in the tumor, 100% retention of ^212Pb and daughters in the tumors and 8 MeV radiation energy per decay. The tumor dosimetry for the injected activities gave on average 35.9 Gy to tumors for ^177Lu-PSMA-617 and 2.06 Gy to tumors for ^212Pb-p-SCN-Bn-TCMC-PSMA ligand 1 groups respectively.

[3] = system: PC3 PIP model; conditions: typical, mouse xenografts, other researchers; cited from earlier work
[4] = system: PSMA-positive xenografts; assay: Biodistribution of single targeting solution (purified ^212Pb-p-SCN-Bn-TCMC-PSMA ligand 1) in mice with PSMA-positive xenografts; format: in vivo
Procedure: Each group usually consisted of three mice. The ^212Pb labelling was above 92% for the products.
Using a ^212Pb/^224Ra solution for reaction with p-SCN-Bn-TCMC-PSMA ligand 1 as described, purified ^212Pb-p-SCN-Bn-TCMC-PSMA ligand 1 was purified using a Sephadex G-10 gel filtration column and about 30 kBq and 300 ng of the purified radioligand product was injected per animal. […] The tumor-to-tissue ratios (Table 4) indicates suitability for radioligand targeting with ^212Pb.

[5] = system: C4-2 cells; assay: Prostate cancer cell binding of ligands labeled with ^212Pb; set-up: species or system human
Procedure: the cell binding fractions measured by adding about 1 ng of radioligand to 0.2 ml of C4-2 cells (5×10^7 cells per ml) in a 5 ml test tube and incubate for 1 h before measuring applied activity, wash cells 3 times with 0.5 ml 0.5% bovine serum albumin in DPBS and thereafter recount the washed cell pellet. […] Nonspecific binding was measured by blocking the cells with excess 10 μg/ml of unlabelled ligand before adding radioligand.

O=C([O-])CN1CCN(CC(=O)[O-])CCN(CC(=O)NCC2CCC(C(=O)N[C@@H](Cc3ccc4ccccc4c3)C(=O)NCCCC[C@H](NC(=O)N[C@@H](CCC(=O)O)C(=O)O)C(=O)O)CC2)CCN(CC(=O)[O-])CC1.[177Lu+3] (stereo partly shown) [^177Lu-PSMA-617, reference compound]
Tumor-to-kidney ratio [1]: 0.17
Kidney uptake [1]: 17.4 % ID/g
Tumor uptake [1]: 13.6 % ID/g
PSMA-ligand uptake in the xenograft model used ([1]; typical, mouse xenografts): 10-15 % ID/g
Median survival [2]: 20 days
PSMA-ligand uptake in PC3 PIP model [3]: 30-40 % ID/g

NC(=O)CN1CCN(CC(N)=O)CCN(CC(N)=O)C(Cc2ccc(NC(=S)NCC3CCC(C(=O)NC(Cc4ccc5ccccc5c4)C(=O)NCCCCC(NC(=O)NC(CCC(=O)O)C(=O)O)C(=O)O)CC3)cc2)CN(CC(N)=O)CC1.[212Pb+2] (stereo not shown) [^212Pb-p-SCN-Bn-TCMC-PSMA ligand 1]
^212Pb-p-SCN-Bn-TCMC-PSMA ligand 1 to PSMA-617 ratio, blood ([1]; 4 h after injection): 1.21
^212Pb-p-SCN-Bn-TCMC-PSMA ligand 1 to PSMA-617 ratio, kidneys ([1]; 4 h after injection): 0.20
^212Pb-p-SCN-Bn-TCMC-PSMA ligand 1 to PSMA-617 ratio, liver ([1]; 4 h after injection): 2.67
^212Pb-p-SCN-Bn-TCMC-PSMA ligand 1 to PSMA-617 ratio, spleen ([1]; 4 h after injection): 0.71
^212Pb-p-SCN-Bn-TCMC-PSMA ligand 1 to PSMA-617 ratio, tumor ([1]; 4 h after injection, ^224Ra/^212Pb solution): 1.35
Tumor-to-kidney ratio [1]: 0.40
Kidney uptake [1]: 8.1 % ID/g
Tumor uptake [1]: 13.9 % ID/g
Tumor to tissue ratio, Tumor/Femur ([4]; 1 h): 30.4
Tumor to tissue ratio, Tumor/blood ([4]; 1 h): 14.9
Tumor to tissue ratio, Tumor/kidneys ([4]; 1 h): 0.41
Tumor to tissue ratio, Tumor/muscle ([4]; 1 h): 42.6
Tumor to tissue ratio, Tumor/Femur ([4]; 2 h): 39.7
Tumor to tissue ratio, Tumor/blood ([4]; 2 h): 29.4
Tumor to tissue ratio, Tumor/kidneys ([4]; 2 h): 0.62
Tumor to tissue ratio, Tumor/muscle ([4]; 2 h): 72.1
Tumor to tissue ratio, Tumor/Femur ([4]; 4 h): 24.8
Tumor to tissue ratio, Tumor/blood ([4]; 4 h): 30.7
Tumor to tissue ratio, Tumor/kidneys ([4]; 4 h): 1.54
Tumor to tissue ratio, Tumor/muscle ([4]; 4 h): 61.5
Tumor to tissue ratio, Tumor/Femur ([4]; 8 h): 19.8
Tumor to tissue ratio, Tumor/blood ([4]; 8 h): 112.7
Tumor to tissue ratio, Tumor/kidneys ([4]; 8 h): 3.60
Tumor to tissue ratio, Tumor/muscle ([4]; 8 h): 366.2
Biodistribution, Bladder ([4]; Bladder, 8 h): 0.26 % ID/g
Biodistribution, Blood ([4]; 2 h): 0.54 % ID/g
Biodistribution, Blood ([4]; 4 h): 0.46 % ID/g
Biodistribution, Blood ([4]; 8 h): 0.13 % ID/g
Biodistribution, Brain ([4]; 1 h): 0.61 % ID/g
Biodistribution, Brain ([4]; 2 h): 0.04 % ID/g
Biodistribution, Brain ([4]; 4 h): 0.07 % ID/g
Biodistribution, Brain ([4]; 8 h): 0.02 % ID/g
Biodistribution, Femur ([4]; 1 h): 0.87 % ID/g
Biodistribution, Femur ([4]; 2 h): 0.40 % ID/g
Biodistribution, Femur ([4]; 4 h): 0.57 % ID/g
Biodistribution, Femur ([4]; 8 h): 0.74 % ID/g
Biodistribution, Heart ([4]; 1 h): 0.78 % ID/g
Biodistribution, Heart ([4]; 2 h): 0.20 % ID/g
Biodistribution, Heart ([4]; 4 h): 0.52 % ID/g
Biodistribution, Heart ([4]; 8 h): 0.09 % ID/g
Biodistribution, Large intestine ([4]; 1 h): 0.25 % ID/g
Biodistribution, Large intestine ([4]; 2 h): 0.39 % ID/g
Biodistribution, Large intestine ([4]; 4 h): 0.18 % ID/g
Biodistribution, Large intestine ([4]; 8 h): 0.17 % ID/g
Biodistribution, Lungs ([4]; 2 h): 0.40 % ID/g
Biodistribution, Lungs ([4]; 4 h): 0.75 % ID/g
Biodistribution, Lungs ([4]; 8 h): 0.17 % ID/g
Biodistribution, Muscle ([4]; 1 h): 0.62 % ID/g
Biodistribution, Muscle ([4]; 2 h): 0.22 % ID/g
Biodistribution, Muscle ([4]; 4 h): 0.23 % ID/g
Biodistribution, Muscle ([4]; 8 h): 0.04 % ID/g
Biodistribution, Prostate ([4]; Prostate, 2 h): 3.80 % ID/g
Biodistribution, Salivary gland ([4]; 1 h): 0.72 % ID/g
Biodistribution, Salivary gland ([4]; 2 h): 0.32 % ID/g
Biodistribution, Salivary gland ([4]; 4 h): 0.34 % ID/g
Biodistribution, Salivary gland ([4]; 8 h): 0.15 % ID/g
Biodistribution, Skin ([4]; 1 h): 1.70 % ID/g
Biodistribution, Skin ([4]; 2 h): 0.47 % ID/g
Biodistribution, Skin ([4]; 4 h): 0.42 % ID/g
Biodistribution, Skin ([4]; 8 h): 0.23 % ID/g
Biodistribution, Skull ([4]; 1 h): 0.77 % ID/g
Biodistribution, Skull ([4]; 2 h): 0.38 % ID/g
Biodistribution, Skull ([4]; 4 h): 0.37 % ID/g
Biodistribution, Skull ([4]; 8 h): 0.63 % ID/g
Biodistribution, Small intestine ([4]; 1 h): 0.34 % ID/g
Biodistribution, Small intestine ([4]; 2 h): 0.23 % ID/g
Biodistribution, Small intestine ([4]; 4 h): 0.30 % ID/g
Biodistribution, Small intestine ([4]; 8 h): 0.08 % ID/g
Biodistribution, Spleen ([4]; 2 h): 0.44 % ID/g
Biodistribution, Spleen ([4]; 4 h): 0.54 % ID/g
Biodistribution, Spleen ([4]; 8 h): 0.36 % ID/g
Biodistribution, Stomach ([4]; 1 h): 0.16 % ID/g
Biodistribution, Stomach ([4]; 2 h): 0.22 % ID/g
Biodistribution, Stomach ([4]; 4 h): 0.10 % ID/g
Biodistribution, Stomach ([4]; 8 h): 0.09 % ID/g
Biodistribution, Testes ([4]; 2 h): 0.56 % ID/g
Biodistribution, Testes ([4]; 4 h): 0.38 % ID/g
Biodistribution, Testes ([4]; 8 h): 0.12 % ID/g
Median survival [2]: > 30 days
Radiobiological effectiveness (RBE) vs ^177Lu-PSMA-617 ([2]; C4-2 xenografts): at least 17
Survival at day 30 after treatment ([2]; groups of 8): 75%

NC(=O)CN1CCN(CC(N)=O)CCN(CC(N)=O)C(Cc2ccc(NC(=S)NC[C@H]3CC[C@H](C(=O)N[C@@H](Cc4ccc5ccccc5c4)C(=O)NCCCC[C@H](NC(=O)N[C@@H](CCC(=O)O)C(=O)O)C(=O)O)CC3)cc2)CN(CC(N)=O)CC1 (stereo partly drawn) [p-SCN-Bn-TCMC-PSMA ligand 1, (((1S)-1-carboxy-5-((2S)-3-(naphthalen-2-yl)-2-((1r,4S)-4-((3-(4-((1,4,7,10-tetrakis(2-amino-2-oxoethyl)-1,4,7,10-tetraazacyclododecan-2-yl)methyl)phenyl)thioureido)methyl)cyclohexane-1-carboxamido)propanamido)pentyl)carbamoyl)-L-glutamic acid; trifloroacetic acid (1:4)]
Difference in cell-binding between radiolabelled p-SCN-Bn-TCMC-PSMA ligand 1 and PSMA-617 [5]: No significant difference
